Measurements from patent publication US8501911B2, “Methods of reducing inflammation and mucus hypersecretion” (Biomarck Pharmaceuticals, Ltd, priority 1999, dated 2013).
“Also recorded” adds a separate entry of the source. Read-outs that look alike come from different tables or passages of the source. Residues, ends and D or L forms follow the SMILES beside them. *: point of attachment. Myristoyl = CCCCCCCCCCCCCC(=O)*

How the values were obtained:
MARCKS = MARCKS phosphorylation in NHBE cells (radiolabeled immunoprecipitation assay); assay type: cell-based, human
Description: NHBE cells were labeled with [^32 P]orthophosphate and then exposed to the reagents: (a) Rp-8-Br-PET-cGMP (100 μM); (b) okadaic acid (500 nM); (c) 8-Br-cGMP (1 μM); and (d) PMA (100 nM). MARCKS phosphorylation in response to the treatments was evaluated by immunoprecipitation assay.
To reveal molecular events by which MARCKS links kinase activation to mucin secretion, phosphorylation of MARCKS in response to PKC/PKG activation was investigated in depth, and results are presented as Results-I-4A. […] Once phosphorylated, MARCKS was translocated from the plasma membrane to the cytoplasm. More specifically, the activation of PKC results in MARCKS phosphorylation in NHBE cells. Cells were labeled with [^32 P]orthophosphate for 2 h and then exposed to the stimulatory and/or inhibitory reagents (see below). MARCKS phosphorylation in response to the treatments was evaluated by immunoprecipitation with the following specifics, designated Results-I-4A:
[^32P]phosphate, cells were preincubated for 2 h in phosphate-free Dulbecco's modified Eagle's medium containing 0.2% bovine serum albumin and then labeled with 0.1 mCi/ml [^32 P]orthophosphate (9000 Ci/mmol, PerkinElmer Life Sciences) for 2 h. For labeling with [^3H]myristic acid or ^3H-amino acids, cells were incubated overnight in medium containing 50 μCi/ml [^3H]myristic acid (49 Ci/mmol, PerkinElmer Life Sciences) or 0.2 mCi/ml [^3H]leucine (159 Ci/mmol, PerkinElmer Life Sciences) plus 0.4 mCi/ml [^3H]proline (100 Ci/mmol, PerkinElmer Life Sciences). Following labeling, cells were exposed to stimulatory reagents for 5 min. When an inhibitor was used, cells were preincubated with the inhibitor for 15 min prior to stimulation. At the end of the treatments, cells were lysed in a buffer containing 50 mM Tris-HCl (pH 7.5), 150 mM NaCl, 1 mM EDTA, 10% glycerol, 1% Nonidet P-40, 1 mM phenylmethylsulfonyl fluoride, 1 mM benzamidine, 10 μg/ml pepstatin A, and 10 μg/ml leupeptin. Trichloroacetic acid precipitation and scintillation counting may determine the radiolabeling efficiency in each culture. Immunoprecipitation of MARCKS protein was carried out according to the method of Spizz and Blackshear using cell lysates containing equal counts/min. Spizz et al., J. Biol. Chem. 271, 553-562 (1996). Precipitated proteins were resolved by 8% SDS-polyacrylamide gel electrophoresis and visualized by autoradiography. Anti-human MARCKS antibody (2F12) and nonimmune control antibody (6F6) were used in this assay.
Phosphorylation of MARCKS by PMA was attenuated by Calphostin C (500 nM). NHBE cells also contained substantial amounts of cGMP-dependent protein kinase type 1α (PKG-1α) activity, which was localized to the cytosolic fraction. […] In addition, the phosphorylation of MARCKS induced by PMA was reversed by incubation with 8-Br-cGMP (10 μM).

NHBE cells = assay: UTP-induced mucin secretion from NHBE cells (ELISA); assay type: cell-based, human; conditions: for Mucin secretion, % of control levels: co-incubation with 0.1 mM UTP 45 min
Description: In Results-I-1D, NHBE cells were preincubated with the indicated inhibitor for 15 min and then stimulated with 100 μM UTP for 2 h. Secreted mucin in response to the treatment was collected and assayed by ELISA. Data are presented as mean±S.E. (n=6 at each point).
UTP is a well defined pathophysiologically relevant mucin secretagogue. Lethem ct al., Am. J. Respir. Cell Mol. Biol. 9, 315-322 (1993). […] To determine whether PKC and PKG were involved in regulation of mucin secretion in response to a pathophysiological stimulus, effects of PKC/PKG inhibitors on UTP-induced mucin secretion were investigated. NHBE cells were preincubated with various inhibitors for 15 min and then exposed to UTP (100 μM) plus the inhibitor for 2 h. The secreted mucin was measured by ELISA. […] Apparently, mucin secretion in NHBE cells may be regulated by a signaling mechanism involving both PKC and PKG.
Peptide Blocking Studies—NHBE cells were preincubated with either the MANS or the RNS peptide (1-100 μM) for 15 min, and then PMA (100 nM)+8-Br-cGMP (1 μM) or UTP (100 μM) was added, and cells were incubated for an additional 15 min or 2 h. respectively. Mucin secretion was measured by ELISA and experimental results are designated as Results-I-2B-1 and Results-I-2B-2, as follows.
PP2A is an essential component of the mucin secretory pathway. NHBE cells were preincubated with the indicated concentration of fostriecin, okadaic acid (500 nM), or medium alone for 15 min and then stimulated with PMA (100 nM)+8-Br-cGMP (1 μM) for 15 min or with UTP (100 μM) for 2 h. Secreted mucin was measured by ELISA. […] Thus, dephosphorylation of MARCKS by a PKG-activated PP2A appears to be an essential component of the signaling pathway leading to mucin granule exocytosis.
Measurement of Mucin Secretion by ELISA—Before collection of “base line” and “test” mucin samples, the accumulated mucus at the apical surface of the cells was removed by washing with phosphate-buffered saline, pH 7.2. To collect the base-line secretion, cells were incubated with medium alone, and secreted mucin in the apical medium was collected and reserved. Cells were rested for 24 h and then exposed to medium containing the selected stimulatory and/or inhibitory reagents (or appropriate controls), after which secreted mucin was collected and reserved as the test sample. Incubation times for the base line and the test were the same but varied depending on the test reagent utilized. Both base line and test secretions were analyzed by ELISA using an antibody capture method as known in the art. See, e.g., Harlow et al., Antibodies: A Laboratory Manual, pp. 570-573, Cold Spring Harbor Laboratory, Cold Spring Harbor, N.Y. (1988). The primary antibody for this assay was 17Q2 (Babco, Richmond, Calif.), a monoclonal antibody that reacts specifically with a carbohydrate epitope on human airway mucins. The ratio of test/base-line mucin, which is similar to a “secretory index”, was used to quantify mucin secretion, allowing each culture dish to serve as its own control and thus, minimizing deviation caused by variability among culture wells. Wright et al., Am. J. Physiol. 271, L854-L861 (1996). Levels of mucin secretion were reported as percentage of the medium control.
These experiments were carried out similarly to those described in Example 7. To test for stimulated secretion, the cells were exposed apically and basolaterally to uridine 5′-triphosphate (UTP) at a concentration of 0.1 mM in media. Cells were pre-incubated for 15 minutes with the MANS peptide and test cultures were then co-incubated with the MANS peptide and UTP for 45 minutes.
NHBE cells were pre-incubated with okadaic acid (500 nM) for 15 min at 37° C./5% CO2, then stimulated with PMA (100 nM)+8-Br-cGMP (1 μM) for 15 min, or with UTP (0.1 mM) for 2 hours. Secreted mucin in the apical medium was collected and assayed by ELISA. […]

[1] = test system: MARCKS-related mucus secretion; assay: Inhibition of MARCKS-related mucus (mucin) secretion, Table 1; assay type: cell-based; conditions: at 100 μM of test peptide
[2] = inhibitor 500 nM + 100 nM PMA + 1 μM 8-Br-cGMP

Compound: Nc1nc2c(nc(Br)n2[C@@H]2O[C@@H]3COP(=O)(O)O[C@H]3[C@H]2O)c(=O)[nH]1 [8-Br-cGMP]
- Effect on PMA-induced phosphorylation of MARCKS (MARCKS; 8-Br-cGMP 10 μM (Example 6)): reversed
- MARCKS phosphorylation (band in immunoprecipitation assay) (MARCKS; reagent 1 μM alone): faint band; also recorded: no band; also recorded: only a trace amount

Compound: CCCCCCCCCCCCCC(=O)NCC(=O)N[C@@H](C)C(=O)N[C@@H](CCC(N)=O)C(=O)N[C@@H](Cc1ccccc1)C(=O)N[C@@H](CO)C(=O)N[C@@H](CCCCN)C(=O)N[C@H](C(=O)N[C@@H](C)C(=O)N[C@@H](C)C(=O)N[C@@H](CCCCN)C(=O)NCC(=O)N[C@@H](CCC(=O)O)C(=O)N[C@@H](C)C(=O)N[C@@H](C)C(=O)N[C@@H](C)C(=O)N[C@@H](CCC(=O)O)C(=O)N[C@@H](CCCNC(=N)N)C(=O)N1CCC[C@H]1C(=O)NCC(=O)N[C@@H](CCC(=O)O)C(=O)N[C@@H](C)C(=O)N[C@@H](C)C(=O)N[C@H](C(=O)N[C@@H](C)C(=O)O)C(C)C)[C@@H](C)O [MANS peptide] (Myristoyl-GAQFSKTAAKGEAAAERPGEAAVA-OH; C-terminus assumed)
- Mucin secretion as % of the level observed with 0.1 mM UTP absent MANS peptide (NHBE cells; peptide 1 μM): about 90%
- Mucin secretion, % of control levels (NHBE cells; peptide 1 μM, 15 min preincubation): 146%
- Mucin secretion as percent of control (NHBE cells; peptide 1 μM, 15 min preincubation, then UTP 100 μM 2 h): 143%
- Mucin secretion as % of the level observed with 0.1 mM UTP absent MANS peptide (NHBE cells; peptide 10 μM): about 80%
- Mucin secretion, % of control levels (NHBE cells; peptide 10 μM, 15 min preincubation): 128%
- Mucin secretion as % of the level observed with 0.1 mM UTP absent MANS peptide (NHBE cells; peptide 100 μM): about 29%
- Mucin secretion, % of control levels (NHBE cells; peptide 100 μM, 15 min preincubation): 46%
- Mucin secretion as percent of control (NHBE cells; peptide 100 μM, 15 min preincubation, then UTP 100 μM 2 h): 46%
- Mucin secretion as percent of control (NHBE cells; test agent 10 μM, 15 min preincubation, then UTP 100 μM 2 h): 125%
- % Inhibition Mucin [1]: 81.5%

Compound: CCCCCCCCCCCCCC(=O)O[C@@H]1[C@@H](C)[C@@]2(O)[C@@H](C=C(CO)C[C@]3(O)C(=O)C(C)=C[C@@H]23)[C@@H]2C(C)(C)[C@]12OC(C)=O [PMA, phorbol 12-myristate 13-acetate]
- Increase in MARCKS phosphorylation (MARCKS; PMA 100 nM): 3-4 fold
- MARCKS phosphorylation (band in immunoprecipitation assay) (MARCKS; reagent 100 nM alone): dark band; also recorded: very dark band; also recorded: showed a band; also recorded: strong band; also recorded: phosphorylated

Compound: CCCCCCCCCCCCCC(=O)NCC(=O)N[C@@H](C)C(=O)N[C@@H](CCC(N)=O)C(=O)N[C@@H](Cc1ccccc1)C(=O)N[C@@H](CO)C(=O)N[C@@H](CCCCN)C(=O)N[C@H](C(=O)N[C@@H](C)C(=O)N[C@@H](C)C(=O)N[C@@H](CCCCN)C(=O)NCC(=O)N[C@@H](CCC(=O)O)C(=O)O)[C@@H](C)O [SEQ ID NO: 13, N-myristoyl-GAQFSKTAAKGE] (Myristoyl-GAQFSKTAAKGE-OH; C-terminus assumed)
- % Inhibition Mucin [1]: 77%

Compound: CCCCCCCCCCCCCC(=O)NCC(=O)N[C@@H](C)C(=O)N[C@@H](CCC(N)=O)C(=O)N[C@@H](Cc1ccccc1)C(=O)N[C@@H](CO)C(=O)N[C@@H](CCCCN)C(=O)N[C@H](C(=O)N[C@@H](C)C(=O)N[C@@H](C)C(=O)N[C@@H](CCCCN)C(=O)O)[C@@H](C)O [SEQ ID NO: 15, N-myristoyl-GAQFSKTAAK] (Myristoyl-GAQFSKTAAK-OH; C-terminus assumed)
- % Inhibition Mucin [1]: 67.5%

Compound: C[C@@](O)(/C=C/[C@H]1CC=CC(=O)O1)[C@@H](C[C@@H](O)\C=C/C=C\C=C\CO)OP(=O)(O)O [fostriecin]
- activity at 0.01 µM (NHBE cells; Homo sapiens, NHBE, inhibitor 10 nM, 15 min preincubation, then UTP 100 μM 2 h, read-out: Mucin secretion as percent of control): 152%
- activity at 0.1 µM (NHBE cells; Homo sapiens, NHBE, inhibitor 100 nM, 15 min preincubation, then UTP 100 μM 2 h, read-out: Mucin secretion as percent of control): 134%
- activity at 0.5 µM (NHBE cells; Homo sapiens, NHBE, inhibitor 500 nM, 15 min preincubation, then UTP 100 μM 2 h, read-out: Mucin secretion as percent of control): 124%
- Effect on PKG-induced MARCKS dephosphorylation (MARCKS; 1-500 nM, with PMA 100 nM + 8-Br-cGMP 1 μM): inhibited PKG-induced MARCKS dephosphorylation in a concentration-dependent manner
- MARCKS phosphorylation (band in immunoprecipitation assay) (MARCKS; [2]): strong band
- MARCKS phosphorylation (band in immunoprecipitation assay) (MARCKS; inhibitor alone, concentration not stated (I-5C lane 9)): only a trace amount

Compound: C=C1[C@@H](O)[C@@H]2O[C@]3(CC[C@H](/C=C/[C@@H](C)[C@@H]4CC(C)=C[C@@]5(O[C@H](C[C@@](C)(O)C(=O)O)CC[C@H]5O)O4)O3)CC[C@H]2O[C@@H]1[C@@H](O)C[C@H](C)[C@H]1O[C@@]2(CCCCO2)CC[C@H]1C [okadaic acid]
- activity at 0.5 µM (NHBE cells; Homo sapiens, NHBE, read-out: Mucin secretion as percent of control, inhibitor 500 nM, 15 min preincubation, then UTP 100 μM 2 h): 112%
- Mucin secretion as percent of control (NHBE cells; inhibitor 500 nM, 15 min preincubation, then UTP 100 μM 2 h): 110%
- Reduction in mucin secretion level from UTP-stimulated level (NHBE cells; inhibitor 500 nM, UTP 0.1 mM 2 h): 31%
- Effect on reversal of MARCKS phosphorylation by 8-Br-cGMP (10 μM) (MARCKS; 500 nM (Example 6)): inhibited this effect
- MARCKS phosphorylation (band in immunoprecipitation assay) (MARCKS; inhibitor 500 nM + 100 nM PMA): dark band
- MARCKS phosphorylation (band in immunoprecipitation assay) (MARCKS; [2]): dark band
- MARCKS phosphorylation (band in immunoprecipitation assay) (MARCKS; inhibitor 500 nM + 100 nM PMA + 1 μM 8-Br-cGMP, listed as Okadaic acid): showed a band
- MARCKS phosphorylation (band in immunoprecipitation assay) (MARCKS; inhibitor 500 nM + 100 nM PMA, listed as Okadaic acid): showed a band
- MARCKS phosphorylation (band in immunoprecipitation assay) (MARCKS; inhibitor 500 nM + 1 μM 8-Br-cGMP): medium dark band
- MARCKS phosphorylation (band in immunoprecipitation assay) (MARCKS; inhibitor 500 nM + 1 μM 8-Br-cGMP, listed as Okadaic acid): faint band
- MARCKS phosphorylation (band in immunoprecipitation assay) (MARCKS; inhibitor 500 nM alone): faint band

Compound: TNF-α
- Mucin secretion level, % of control (NHBE cells; TNF-α 10 ng/ml 4 h, then UTP 0.1 mM 2 h): 191%
